Data from patent US20250275929A1, “INTRAOPERATIVE TOPICALLY-APPLIED NON-IMPLANTABLE RAPID RELEASE PATCH” (PRIVO TECHNOLOGIES, INC., priority 2017, published 2025).

Test: HPLC chromatograms of agent from patch and from gamma sterilized patch
Format: physicochemical
From the text: FIGS. 9A, 9B, and 9C are graphs showing that agent(s) included within a patch, according to embodiments of the present invention, are not modified when incorporated into the patch or when the patch is sterilized. FIG. 9A is a graph showing a high-performance liquid chromatography (H PLC) chromatogram of a cisplatin standard. FIG. 9B is a graph showing an HPLC chromatogram of a patch, which illustrates that the cisplatin was not modified.
The patch is sterilized prior to application to a surgical cavity, for example after the patch is manufactured and before packaging. In some embodiments, gamma sterilization is employed to sterilize the patch. FIGS. 9A-9C show HPLC chromatograms at various stages of product synthesis. The HPLC apparatus was an Agilent 1100 Series HPLC using a water/methanol/sodium lauryl sulfate solvent mixture adjusted to pH 2.5 with trifluoromethanesulfonic acid. FIG. 9A is an HPLC chromatogram of a cisplatin standard. FIG. 9B is an HPLC chromatogram of a cisplatin sample taken from a patch that was dissolved in a solution, which illustrates that the cisplatin was not modified while in the patch. […] Similar experiments were conducted using oxaliplatin and 5-fluorouracil. This experiment proves that the patches are able to be manufactured and sterilized while maintaining the integrity of the agent(s) included within.

Q: For `N.N.[Cl][Pt][Cl]` [cisplatin], which “integrity of agent after gamma ray sterilization of patch (HPLC)” value (gamma ray sterilization for 25 minutes) is on record?
A: not modified

Q: And the “integrity of agent while in the patch (HPLC)” value (sample taken from a patch dissolved in a solution)?
A: not modified
